pKd: −log10 of the molar value.

A short description of data set [1]: Guinea pig osmotic pump toxicity experiment. The class given is in vivo. As to conditions: guinea pigs, intraperitoneal osmotic pump, 14 days; for depression of weight gain relative to control: FIG. 8. On the procedure:
In another experiment three-week old male Hartley guinea pigs were implanted intraperitonially with osmotic pumps containing 20% DMSO/80 polyethylene glycol (vehicle) or Compound 42 at concentrations of 4.4, 13.3 or 40 mg/ml in vehicle. Based on the initial body weights and known pumping rate, approximate doses of 0, 2, 6, and 18 mg/kg/day doses of Compound 42 are estimated. Body weights and clinical observations were recorded at least every other day for 14 days post-implantation. The guinea pigs were euthanized after 14 days, and the pumps were examined for possible failure.

Data set [2] has as its target T1, RXRΓ (Homo sapiens, UniProt P48443).
T1 construct: made in house; host or cells: Baculovirus expression (insect cell extract)
T1 sequence (P48443 1-463): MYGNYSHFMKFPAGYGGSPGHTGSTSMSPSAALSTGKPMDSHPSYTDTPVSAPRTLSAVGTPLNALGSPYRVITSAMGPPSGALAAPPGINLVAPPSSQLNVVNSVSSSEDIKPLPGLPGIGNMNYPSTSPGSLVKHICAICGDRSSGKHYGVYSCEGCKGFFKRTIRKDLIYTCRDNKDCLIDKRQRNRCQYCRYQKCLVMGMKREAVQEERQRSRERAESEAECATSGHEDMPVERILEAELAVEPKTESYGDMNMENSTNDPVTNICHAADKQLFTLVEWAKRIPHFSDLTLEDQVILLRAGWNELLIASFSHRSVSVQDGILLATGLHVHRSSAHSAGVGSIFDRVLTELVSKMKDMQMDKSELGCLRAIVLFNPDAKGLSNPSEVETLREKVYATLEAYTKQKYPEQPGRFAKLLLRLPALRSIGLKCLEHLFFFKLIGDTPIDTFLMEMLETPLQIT
In words: Ligand binding assay, RXRΓ. Here is the method:
(§1) All binding assays were performed in a similar fashion. All six receptor types were derived from the expressed receptor type (RARα, β, Γ and RXRα, β, Γ) expressed in Baculovirus. Stock solutions of all compounds were prepared as 10 mM ethanol solutions and serial dilutions carried out into 1:1 DMSO; ethanol. Assay buffers consisted of the following for all six receptor assays: 8% glycerol, 120 mM KCl 8 mM Tris, 5 mM CHAPS 4 mM DTT and 0.24 mM PMSF, pH-7.4@ room temperature.
(§2) All receptor binding assays were performed in the same manner. The final assay volume was 250 μl and contained from 10-40 μg of extract protein depending on receptor being assayed along with 5 nM of [^3H] all-trans retinoic acid or 10 nM [^3H] 9-cis retinoic acid and varying concentrations of competing ligand at concentrations that ranged from 0-10^−5 M. The assays were formatted for a 96 well minitube system. Incubations were carried out at 4° C. until equilibrium was achieved. Non-specific binding was defined as that binding remaining in the presence of 1000 nM of the appropriate unlabeled retinoic acid isomer. At the end of the incubation period, 50 μl of 6.25% hydroxyapitite was added in the appropriate wash buffer. The wash buffer consisted of 100 mM KCl, 10 mM Tris and either 5 mM CHAPS (RXRα, β, Γ) or 0.5% Triton X-100 (RARα, β, Γ). The mixture was vortexed and incubated for 10 minutes at 4° C., centrifuged and the supernatant removed. The hydroxyapitite was washed three more times with the appropriate wash buffer. The receptor-ligand complex was adsorbed by the hydroxyapitite. The amount of receptor-ligand complex was determined by liquid scintillation counting of hydroxyapitite pellet.
(§3) After correcting for non-specific binding, IC50 values were determined. […] The IC50 value was determined graphically from a loglogit plot of the data. The […] were determined by application of the Cheng-Prussof equation to the IC50 values, the labeled ligand concentration and the Kd of the labeled ligand.
(§4) The results of ligand binding assay are expressed in Kd numbers. (See Cheng et al. Biochemical Pharmacology Vol. 22 pp 3099-3108, expressly incorporated herein by reference.)

In data set [3] the target is T2, RXRβ (Homo sapiens, UniProt P28702).
T2 construct: made in house; host or cells: Baculovirus expression (insect cell extract)
T2 sequence (P28702 1-533): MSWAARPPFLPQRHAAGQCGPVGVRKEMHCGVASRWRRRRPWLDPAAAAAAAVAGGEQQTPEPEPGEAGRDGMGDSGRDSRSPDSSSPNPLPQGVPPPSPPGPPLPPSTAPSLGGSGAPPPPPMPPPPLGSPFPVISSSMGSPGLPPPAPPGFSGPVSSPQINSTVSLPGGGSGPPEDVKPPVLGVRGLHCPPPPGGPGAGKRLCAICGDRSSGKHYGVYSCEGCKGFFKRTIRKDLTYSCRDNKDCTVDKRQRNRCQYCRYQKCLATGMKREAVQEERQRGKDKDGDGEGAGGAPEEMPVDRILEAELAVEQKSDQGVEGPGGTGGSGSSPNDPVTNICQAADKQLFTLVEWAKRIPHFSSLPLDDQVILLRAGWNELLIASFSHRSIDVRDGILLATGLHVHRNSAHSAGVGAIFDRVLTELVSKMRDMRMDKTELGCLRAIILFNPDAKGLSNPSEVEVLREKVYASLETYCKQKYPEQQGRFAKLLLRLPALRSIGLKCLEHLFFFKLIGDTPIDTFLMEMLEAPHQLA
Put plainly: Ligand binding assay, RXRβ. Here is the method: as §1, §2, §3, §4

For data set [4], the system named is retinal pigment epithelium (RPE) cells. In words: Primary RPE culture proliferation. The class given is cell-based, human. As to conditions: FIG. 5; 10^−10 to 10^−6 M, six days treatment. On the procedure: Primary cultures of human retinal pigment epithelium (RPE) were established from eyes as previously described, (Campochiaro et al., Invest. Opthal & Vis. Sci. 32:65-72 (1991)). 5×10^4 Cells were plated in 16-mm wells of 24-well multiwell plates in Dulbecco's modified Eagle's medium (DMEM Gibco) containing 10% fetal bovine serum (FBS). Cells were treated with ethanol alone (control), ATRA (10^−10 to 10^−6 M) in ethanol, and Compound 42 (10^−10 to 10^−6 M) in ethanol. Cells were fed with fresh media containing the appropriate concentrations of these compounds every two days for a total of six days treatment. Cells were removed from the plates via treatment with trypsin and the number of cells were counted with an electronic cell counter.

Usually pKd stands for the Kd on a negative log10 scale, so that one unit is a factor of ten. A high value points to a small Kd. For the compound `CC(C)(C)c1cc(C(=O)Nc2ccc(C(=O)O)c(F)c2)cc(C(C)(C)C)n1` [Compound 42], the mucocutaneous toxicity result in data set [1] (any dose (2, 6, 18 mg/kg/day)) was “no signs of mucocutaneous toxicity”. In addition, the “depression of weight gain relative to control” value in data set [1] (high dose (18 mg/kg/day)) is listed as “Significant depression of weight gain”; in data set [1] (lower and middle doses (approx. 2 and 6 mg/kg/day)), “no, or only statistically insignificant depression of weight gain”. Further, the negative logarithm of the Kd (pKd) in data set [2] and in data set [3] was under 6.00 each time. Also, the RPE cell proliferation entry in data set [4] is given as “dose dependent decrease in RPE cell proliferation”.

(Values after patent US6610744B2, “Methods of treatment with compounds having RARα receptor specific or selective activity” (Allergan, Inc., priority 1995, dated 2003).)
